Nine compounds from ChEMBL document CHEMBL3045250 (Med Chem Res, 2005) can be followed below.

For test [1], the target named is T1, 5-hydroxytryptamine receptor 6 (Homo sapiens, UniProt P50406). As to the kind of experiment: Displacement of [3H]LSD from Homo sapiens (human) 5-HT6 receptor expressed in Homo sapiens (human) HEK293 cells. The test is classed as cell-based.
The target in test [2] is T1, 5-hydroxytryptamine receptor 6. Nature of the test: Binding affinity to 5-HT6 receptor (unknown origin).

T1 sequence (P50406 whole entry): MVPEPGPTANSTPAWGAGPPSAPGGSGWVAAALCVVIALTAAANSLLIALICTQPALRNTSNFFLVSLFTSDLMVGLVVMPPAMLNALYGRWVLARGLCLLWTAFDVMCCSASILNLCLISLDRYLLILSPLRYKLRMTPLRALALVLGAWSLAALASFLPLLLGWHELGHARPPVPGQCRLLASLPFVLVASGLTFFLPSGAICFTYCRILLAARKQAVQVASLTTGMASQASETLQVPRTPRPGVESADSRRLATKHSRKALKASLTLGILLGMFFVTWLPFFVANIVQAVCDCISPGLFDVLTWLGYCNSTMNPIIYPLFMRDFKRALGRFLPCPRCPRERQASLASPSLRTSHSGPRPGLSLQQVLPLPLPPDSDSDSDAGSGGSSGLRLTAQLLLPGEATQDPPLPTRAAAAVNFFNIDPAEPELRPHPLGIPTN

In general, Ki refers to a measure of affinity in units of concentration, obtained from inhibition or displacement. `CN(C)CCc1c(-c2ccccc2)[nH]c2ccncc12` showed a Ki in test [1] of 270 nM. This counts as sub-micromolar.
Compound `CNc1cc(NS(=O)(=O)c2ccc(N)cc2)nc(NC)n1` gave a Ki in test [2] of 58 nM.
Take `Cc1cn(S(=O)(=O)c2ccc(N)cc2)c2ccncc12`: the Ki in test [1] was 41 nM.
Still for that read-out and setting: with `NCCc1c(-c2ccccc2)[nH]c2ccncc12` the figure was 2600 nM; with `CN(C)CCc1c[nH]c2ccncc12`, 100 nM.
Take `CCc1[nH]c2ccncc2c1CCN`: in test [1], the Ki worked out at 4900 nM. This Ki is about 49-fold higher than that of the compound before.
Same read-out and setting: the value for `NCCc1c[nH]c2ccncc12` [5-Azatryptamine] was 64 nM; that for `CN(C)CCc1cn(S(=O)(=O)c2ccccc2)c2ccncc12` was 84 nM; that for `CCc1[nH]c2ccncc2c1CCN(C)C` was 2900 nM.
